ChEMBL document CHEMBL3507680, “University of Dundee, Gates Library screen for HepG2 cell viability”

test: Human HepG2 cell viability assay in 384 well format; assay type: toxicity, cell-based; parameters: dose 125 nL, time 70.5 hour; cytotoxicity at 70.5 h: concentration not given beside the values; conditions: HepG2 cells, read-out: Inhibition

Row | Compound | cytotoxicity at 70.5 h
1 | CN(C)C(=O)CNC(CC(F)(F)F)c1ccc(F)cc1 (stereo not drawn) | 7.18%
2 | COCC1CCCN(C(=O)c2ccccc2NCc2cccnc2)C1 (stereo not drawn) | 3.32%
3 | OCCCN(CCc1cccc(F)c1)C1CC1 | -4.09%
4 | CN(C)c1nc(N)nc(CN2CCCC2c2cccs2)n1 (stereo not drawn) | 0.514%
5 | NC(=O)NC(=O)CCSCc1coc(-c2ccc(F)cc2)n1 | -3.5%
6 | Cn1c2ncccc2c(=O)n1CC(=O)Nc1ccc(F)c(F)c1 | -3.2%
7 | Cc1cccc(-n2cnc(Cl)c2C(=O)O)c1 | -16.5%
8 | COCCOc1ccc(CNc2nc3ccccc3nc2N)cn1 | -3.46%
9 | O=C(O)c1ccnc(SCC(F)(F)F)c1 | -10.8%
10 | Cn1c2ncccc2c(=O)n1CC(=O)NCCc1c(F)cccc1F | -7.19%
11 | O=C(NC1CCCN(c2ccccc2Cl)C1)c1ccc(=O)[nH]n1 (stereo not drawn) | -12.6%
12 | Cc1nnc(SC2CCN(c3sccc3C#N)C2=O)[nH]1 (stereo not drawn) | -9.17%
13 | Cc1cc(CCC(=O)NCc2ncc[nH]2)ccc1Br | -0.138%
14 | Cc1nnc(SC2CCN(c3sccc3C#N)C2=O)s1 (stereo not drawn) | 24.5%
15 | Cc1cc(CCC(=O)NCc2nccn2C)ccc1Br | 1.59%
16 | CN1CCN(C(=O)c2cc[nH]c(=O)c2)Cc2ccccc21 | 1.93%
17 | N#Cc1ccsc1N1CCC(Sc2ccncc2)C1=O (stereo not drawn) | -7.07%
18 | Cc1cc(=O)[nH]cc1C(=O)N1Cc2ccccc2N(C)CC1C (stereo not drawn) | 26%
19 | CC1(C)CN=C(N2CCN(CC3CCOC3)CC2)S1 (stereo not drawn) | -12.3%
20 | Cc1nn(C)c(C)c1C(=O)N1CCN(c2ccncc2Cl)CC1 | -6.89%
21 | CC(C)(CO)CCCNC(=O)NC1(C)Cc2ccccc2C1 | -0.326%
22 | COC1CCN(C(=O)c2ccccc2NCc2cccnc2)CC1 | -2.63%
23 | COc1ccc(CC(=O)N(C)c2cccnc2N(C)C)c(Cl)c1 | -1.15%
24 | CC(C)(C)n1cc(CNc2ccc(CNS(C)(=O)=O)cc2)cn1 | -8.49%

Row | Compound | cytotoxicity at 70.5 h
25 | CN1CCCN(C(=O)c2cccn2-c2ccc3c(c2)OCCO3)CC1 | -5.24%
26 | O=C(c1cccn1-c1ccc2c(c1)OCCO2)N1CCCC1 | -11.9%
27 | COC(=O)C1CCCN1C(=O)c1ccc(-n2nc(C)cc2C)cc1 (stereo not drawn) | -4.44%
28 | COc1ccc(N(Cc2ccco2)C(=O)C2CCOC2)cc1F (stereo not drawn) | -6.7%
29 | CCOC(=O)C1CSCCN1C(=O)c1ccc(-n2nc(C)cc2C)cc1 (stereo not drawn) | 3.47%
30 | COc1c(CNC(C)C(=O)NC2CCCC2)c(C)nn1C (stereo not drawn) | -6.91%
31 | O=C(Nc1nnn[nH]1)c1ccc(I)c(F)c1 | 4.13%
32 | CC(=O)N1CCCN(C(=O)NC(C)c2csc3ccccc23)CC1 (stereo not drawn) | -6.35%
33 | Cc1cccc(NC(=O)N2CCN(Cc3nnc(C(C)C)o3)CC2)c1 | -7.45%
34 | CCCN1CCC(Nc2nc(C)ns2)CC1 | -8.37%
35 | C=C(C)CN1CCC(Nc2nc(C)ns2)CC1 | -0.501%
36 | Cc1c(Cl)ccc2ccc(NC(CO)CO)nc12 | 6.75%
37 | Cc1ccc(Cl)c2ccc(NC(CO)CO)nc12 | 0.998%
38 | Cc1nnc2ccc(C(=O)N3CCSC(C)(C)C3)cn12 | 11.4%
39 | Cc1nnc(CN(C)Cc2nc3c(s2)CCCC3)o1 | -5.09%
40 | CN(Cc1nnc(-c2cccs2)o1)Cc1nc2c(s1)CCCC2 | -14.1%
41 | CCOCC(=O)N(Cc1ccco1)c1ccc(OC)c(F)c1 | -5.82%
42 | CN1CCN(CC(=O)NCc2ccco2)Cc2ccccc21 | -13.5%
43 | Fc1ccc(-c2nnc(CNC3CCc4ncnn4C3)o2)cc1 (stereo not drawn) | -12.1%
44 | COC(=O)N1CCCC(C(=O)N(C)C)C1 (stereo not drawn) | -9.72%
45 | Cc1nc(CN2CCCC(N(C)c3ccc(C#N)cn3)C2)no1 (stereo not drawn) | -2.54%
46 | NC(=O)NC(=O)CNc1cccc(C(=O)c2ccccc2)c1 | 13.6%
47 | CCNC(=O)NC(=O)CNc1cccc(C(=O)c2ccccc2)c1 | -12.7%
48 | CN(C)C(=O)C1CCN(C(=O)c2c[nH]c3cc(Cl)ccc23)CC1 | -8.29%

Row | Compound | cytotoxicity at 70.5 h
49 | CC(C)(C)C(=O)NCC(=O)NCCc1nc(C(F)(F)F)cs1 | -9.84%
50 | CN(Cc1ccccc1F)C(=O)Cn1cc(NC(=O)C(C)(C)C)cn1 | 10.7%
51 | O=C(Nc1ccc(-c2nnc[nH]2)cc1)C1CCN1Cc1ccccc1 (stereo not drawn) | 14.7%
52 | CCS(=O)(=O)NCC(=O)Nc1cc(CC(C)(C)C)n[nH]1 | 0.46%
53 | O=C(NC1CCN(c2ncccc2F)C1)c1cccc(-n2ccnn2)c1 (stereo not drawn) | -6.27%
54 | CC(C)(C)c1nc(CNC(=O)N2CCc3ccccc3C2CO)no1 (stereo not drawn) | -2.31%
55 | CCc1nc(CNc2ccc(F)cc2I)no1 | 2.16%
56 | Cc1cc(Cl)ccc1NCc1ccc(C(=O)N(C)C)[nH]1 | -4.01%
57 | Cc1cc(Br)ccc1NCc1ccc(C(=O)N(C)C)[nH]1 | 18.2%
58 | CC(c1ccccc1)N(C)C(=O)Cn1cc(NC(=O)C(C)(C)C)cn1 (stereo not drawn) | -3.77%
59 | CC(C)N(C)CC(=O)NCCc1nc(C(F)(F)F)cs1 | -5.26%
60 | Cc1cnn(CC(C)Nc2nc(C)cc(N(C)C)n2)c1 (stereo not drawn) | -6.1%
61 | Cc1csc(CCCNC(C)CC(=O)Nc2cccc(C)c2C)n1 (stereo not drawn) | -4.67%
62 | Cc1noc(CCCNC(=O)N2CCc3ccccc3C2CO)n1 (stereo not drawn) | 14.9%
63 | CCc1cnc(CCNC(C)CC(=O)Nc2cccc(C)c2C)s1 (stereo not drawn) | -5.98%
64 | CC(NCC(=O)N(C)C1CC1)c1ccc(S(C)(=O)=O)c(F)c1 (stereo not drawn) | -9.06%
65 | O=C(NC1CCN(CC2CC2)C1)c1ccc(C(=O)c2cc[nH]c2)cc1 (stereo not drawn) | -9.44%
66 | CC(C)c1noc(CS(=O)(=O)CC(=O)NCCOc2ccccc2)n1 | -13.7%
67 | COCCCNC(=O)COc1ccccc1C(F)(F)F | -5.58%
68 | CC(NC(=O)Cn1cccnc1=O)c1ccc(OC(F)(F)F)cc1 (stereo not drawn) | -8.28%
69 | CC(Sc1nnc(C2CC2)n1CC(N)=O)c1ccc(F)cc1F (stereo not drawn) | -4.59%
70 | NC(=O)C(NC(=O)c1cc(Cl)c[nH]1)c1ccccc1 (stereo not drawn) | -8.05%
71 | COc1ccccc1CC(=O)NC(CC(=O)O)c1ccc(C)cc1 (stereo not drawn) | -6.19%
72 | CC(C)c1noc(CS(=O)(=O)CC(=O)NCC(F)(F)F)n1 | -6.46%

Row | Compound | cytotoxicity at 70.5 h
73 | Cc1nc(CC(=O)N2CCN(C(C)c3ccccc3F)CC2)cs1 (stereo not drawn) | -5.6%
74 | Cc1ncc(CNC(=O)c2oc3ccccc3c2CN(C)C)s1 | -8.45%
75 | Cc1cnccc1NC(=O)CCc1ccsc1 | -13.1%
76 | Cc1ccc(C(=O)NCCNC(=O)N(C)C(C)c2ccccn2)cc1 (stereo not drawn) | -2.96%
77 | Cc1ccc(=O)n(CC(=O)N2CCCC(c3nc(C)c(C)s3)C2)n1 (stereo not drawn) | -5.44%
78 | CNc1nc(CNC(=O)Nc2ccccc2OC(C)C)cs1 | 14%
79 | COC(=O)[C@H]1CCCCN1C(=O)c1cccc(-n2cccn2)c1 | -4.76%
80 | Cc1ccn(-c2ccc(NCc3cccnc3N3CCCCC3)nn2)n1 | 12.6%
81 | Cn1cc(C(=O)N2CCOc3cc(F)ccc32)ccc1=O | -7.98%
82 | O=c1[nH]c(N2CC(O)C2)nc2c1cnn2-c1ccccc1 | -9.7%
83 | COC(=O)C1(C)CCN(C(=O)NCCc2c(C)[nH]c3ccccc23)C1 (stereo not drawn) | -3.86%
84 | CC(OCC1CC1)C(=O)NCc1ccc(Cn2ccnc2)cc1 (stereo not drawn) | -6.63%
85 | Cc1noc(C)c1CN1CCCC(CN(C(=O)OC(C)(C)C)C(C)C)C1 (stereo not drawn) | -3.37%
86 | CCn1c(C)nnc1CN(C)C1CCN(Cc2nccn2C)C1 (stereo not drawn) | 3.01%
87 | CCOc1ccccc1CSc1nnc(CC2CCS(=O)(=O)C2)n1C (stereo not drawn) | -11.4%
88 | Cn1c(CC2CCS(=O)(=O)C2)nnc1SCCOc1cccc(Cl)c1 (stereo not drawn) | -11.2%
89 | O=C(NCc1cccnc1)C1=NN(c2ccccc2)C(=O)CN1 | -13.9%
90 | COCc1ccc(CNC(=O)C2=NN(c3ccccc3)C(=O)CN2)cc1 | -12.2%
91 | O=C(NCc1cc[nH]n1)NCC(c1ccco1)N1CCCC1 (stereo not drawn) | -13.5%
92 | O=C(c1ccn(-c2ccccc2Cl)n1)N1CCSCC1 | -14.1%
93 | CCS(=O)(=O)NCCNC(=O)c1cc(Cl)c2c(c1)OCCCO2 | -9.4%
94 | Cc1nn(C)c(N(C)C)c1CNCc1cccc(CN(C)C(C)C)c1 | -9.1%
95 | CCn1nc(-c2ccccc2F)ccc1=O | -8.76%
96 | Cn1cc(CNCCOc2ccc(F)c(F)c2)c(-c2cccnc2)n1 | -5.61%

Row | Compound | cytotoxicity at 70.5 h
97 | Cc1cccc(CNC(CN2CCN(C)CC2)c2ccccc2)c1 (stereo not drawn) | 10.9%
98 | CCN(CC)C(=O)CCNc1cncc(-n2nc(C)cc2C)n1 | -1.19%
99 | Cc1ccc(C2CSCCN2C(=O)c2ccc(C(N)=O)cc2)o1 (stereo not drawn) | -9.63%
100 | CC(C)OCCN(Cc1cccc(O)c1)C1CCC(O)CC1 (stereo not drawn) | -3.81%
101 | CC(=O)N(Cc1ncc(C)o1)C1CCN(Cc2cccc(C#N)c2)C1 (stereo not drawn) | -5.2%
102 | CC(C)c1csc(C2CCCN(C(=O)c3ncccn3)C2)n1 (stereo not drawn) | 13%
103 | Cc1csc(C2CCCN(C(=O)c3ccc(=O)n(C)n3)C2)n1 (stereo not drawn) | -9.44%
104 | COc1ccc(CN2CCCCC2CNC(=O)OC(C)(C)C)cc1F (stereo not drawn) | -7.89%
105 | CCCc1n[nH]c(C2CN(CCS(=O)(=O)CC)CCO2)n1 (stereo not drawn) | -7.9%
106 | CCCc1n[nH]c(C2CN(CCC(F)(F)F)CCO2)n1 (stereo not drawn) | -5.18%
107 | CC(C)c1n[nH]c(C2CN(CCCS(C)(=O)=O)CCO2)n1 (stereo not drawn) | -4.2%
108 | Cc1cc(C(=O)N2CCc3nnc(N)cc3C2)c(C)n1-c1ccccc1 | -1.62%
109 | O=C(NCCc1ccc(Cl)s1)N1CCS(=O)(=O)CC1 | -3.08%
110 | O=C(Cc1csc(-c2ccsc2)n1)N1CCN(c2cnccn2)CC1 | -10.1%
111 | CNC(=O)CN1CCN(C(=O)c2ccn(C)c(=O)c2)CC1 | 31.2%
112 | Cc1ccc(CNC(=O)NCCCO)cc1 | 19.3%
113 | CCn1cnnc1CNC(=O)c1cc(Cl)c(I)cc1OC | -7.1%
114 | Cc1nn(C)c(C)c1CC(=O)NCc1ccnc(N2CCOCC2)c1 | -6.63%
115 | CCn1cnnc1CNC(=O)c1cc(F)ccc1OC | -6.76%
116 | CC(NC(=O)NCCCN(C)S(C)(=O)=O)c1ccc(C#N)cc1 (stereo not drawn) | -4.16%
117 | CCc1cccc(N2CCC(NC(=O)C3CCCO3)CC2)c1 (stereo not drawn) | -3.65%
118 | CCC(C)(N)c1nc(=O)c(C(C)C)c(C)[nH]1 (stereo not drawn) | -5.63%
